We go through twelve molecules from patent publication US12595248B2, “PRMT5 inhibitors” (Merck Sharp & Dohme LLC, priority 2019, dated 2026).

Where only a bound is given, the exact number is not on record here.

One test addresses T1, PRMT5 (Homo sapiens, UniProt O14744).
T1 construct: seeded with 4000 MCF-7 cells in 30 μl media; endogenous in cells; host or cells: MCF-7 cells
The experiment in a line: PRMT5 Cell Target Engagement (TE) Assay. It is filed as cell-based. The following applies: MCF-7 cells, treated for 3 days, symmetric dimethylation of arginine (SDMA) by high content imaging. Put shortly:
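MCF-7 cells treated 3 days at 37 °C with a ten-point 1:3 titration from 10000 nM. Fixed cells immunostained with anti-SDMA and Alexa488 secondary; nuclear fluorescence quantified by high-content imaging versus DMSO wells, with IC50 from a 4-parameter fit.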

Test [1] addresses T2, PRMT5-MEP50 enzyme complex (Homo sapiens, UniProt O14744).
T2 construct: Full-length (FL)-PRMT5-MEP50 enzyme complex (recombinant proteins from baculovirus-transfected Sf21 cells: FL-PRMT5; MW=73837 kDa and FL-MEP50; MW=38614); made in house; host or cells: baculovirus-transfected Sf21 cells
The test can be described thus: PRMT5-MEP50 Enzyme Methylation Assay (Version A). The format is biochemical. How it is done: PRMT5-MEP50 Enzyme Methylation Assay (Version A)
PRMT5-MEP50 biochemical assay is a direct measurement of the methylation activity of the enzyme complex on a short peptide substrate derived from the N-terminus of H4 histone. Methylation experiment was performed with recombinant PRMT5-MEP50 protein complex. The assessment of inhibitory effect of small molecules was measured by the effectiveness of the compounds to inhibit this reaction (EC50).
In this assay, the potency (EC50) of each compound was determined from a twenty-point (1:2 serial dilution; top compound concentration of 100000 nM) titration curve using the following outlined procedure. To each well of a white ProxiPlus 384 well-plate, 100 nL of compound (1% DMSO in final assay volume of 10 μL) was dispensed, followed by the addition of 8 μL of 1× assay buffer (50 mM Bicine pH 8.0, 1 mM DTT, 0.004% Tween20, 0.01% BSA) containing 1.25 nM of Full-length (FL)-PRMT5-MEP50 enzyme complex (recombinant proteins from baculovirus-transfected Sf21 cells: FL-PRMT5; MW=[…] and FL-MEP50; MW=38614) and 1 μL of 150 μM S-(5′-Adenosyl)-L-Methionine Chloride (SAM). A plate was sealed and placed in a 37° C. humidified chamber for a 60 minutes pre-incubation with compound. Subsequently, each reaction was initiated by the addition of 1 μL 1× assay buffer containing 750 nM biotinylated H4R3 (MeI) peptide. The final reaction in each well of 10 μL consists of 1.0 nM PRMT5-MEP50, 75 nM biotinylated-peptide, and 15 μM SAM. Methylation reactions were allowed to proceed for 150 minutes in a sealed plate at 37° C. Reactions were immediately quenched by the addition of 1 μL of 5% formic acid. A plate was then frozen and shipped to SAMDI™ Tech Inc. to determine the percent conversion from H4R3 (MeI) to H4R3 (Me2). Dose-response curves were generated by plotting percent effect (% product conversion; Y-axis) vs. Log 10 compound concentrations (X-axis). EC50 values were determined by non-linear regression according to models for either sigmoidal (4 parameters) or biphasic (7 parameters) dose-response curves.

Test [2] concerns the target T2, PRMT5-MEP50 enzyme complex. The experiment in a line: PRMT5-MEP50 Enzyme Methylation Assay (Version B). It is filed as biochemical. Put shortly: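 Recombinant full-length PRMT5-MEP50 (0.5 nM, Sf21-expressed) pre-incubated 30 min at 37 °C with compound (20-point, 1:2, top 100000 nM), then reacted 150 min at 37 °C with 75 nM biotinylated H4R3 peptide and 15 μM SAM in Bicine pH 8.0. Formic acid quench; SAMDI MS conversion to Me2; EC50 by sigmoidal or biphasic fit.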

[3] abbreviates: only one EC50 shown: 4 parameters single site sigmoidal model, 60 min pre-incubation with SAM, read-out: Enzyme Methylation Assay Version A (EC50).
[4] abbreviates: first of two EC50s: 7 parameters biphasic model, read-out: Enzyme Methylation Assay Version A (EC50_1).
[5] abbreviates: second of two EC50s: 7 parameters biphasic model, read-out: Enzyme Methylation Assay Version A (EC50_2).

T1 sequence (O14744 whole entry): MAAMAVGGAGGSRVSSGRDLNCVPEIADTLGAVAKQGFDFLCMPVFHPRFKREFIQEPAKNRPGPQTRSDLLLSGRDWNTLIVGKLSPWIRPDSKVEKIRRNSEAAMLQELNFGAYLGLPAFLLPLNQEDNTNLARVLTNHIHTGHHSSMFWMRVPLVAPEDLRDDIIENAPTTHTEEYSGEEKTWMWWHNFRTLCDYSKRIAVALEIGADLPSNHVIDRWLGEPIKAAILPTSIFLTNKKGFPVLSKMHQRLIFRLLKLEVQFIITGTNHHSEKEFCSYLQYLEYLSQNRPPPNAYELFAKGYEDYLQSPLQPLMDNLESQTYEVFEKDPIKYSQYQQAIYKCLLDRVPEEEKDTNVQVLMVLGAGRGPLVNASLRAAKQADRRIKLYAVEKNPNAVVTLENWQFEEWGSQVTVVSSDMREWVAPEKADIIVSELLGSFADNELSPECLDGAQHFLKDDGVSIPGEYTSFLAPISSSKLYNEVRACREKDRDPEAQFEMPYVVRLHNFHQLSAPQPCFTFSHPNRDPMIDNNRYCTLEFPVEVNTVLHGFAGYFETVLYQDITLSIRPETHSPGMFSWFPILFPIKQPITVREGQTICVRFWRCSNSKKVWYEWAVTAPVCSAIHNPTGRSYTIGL
T1 sequence (Q9BQA1 whole entry partner): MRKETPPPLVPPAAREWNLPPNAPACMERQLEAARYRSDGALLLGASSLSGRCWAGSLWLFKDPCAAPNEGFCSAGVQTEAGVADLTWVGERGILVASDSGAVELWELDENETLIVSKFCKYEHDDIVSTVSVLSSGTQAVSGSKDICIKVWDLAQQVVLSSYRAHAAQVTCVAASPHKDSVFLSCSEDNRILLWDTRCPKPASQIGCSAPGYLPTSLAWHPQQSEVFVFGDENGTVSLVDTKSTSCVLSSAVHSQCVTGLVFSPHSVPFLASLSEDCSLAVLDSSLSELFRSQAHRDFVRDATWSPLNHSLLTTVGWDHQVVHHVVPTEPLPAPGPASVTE
T2 sequence (O14744 whole entry): as the sequence (O14744 whole entry) above
T2 sequence (Q9BQA1 whole entry partner): as the sequence (Q9BQA1 whole entry partner) above

As to `O=C(c1cn2cc(Br)ccc2n1)N1CC[C@H](N2CCc3ccccc3C2)[C@@H](O)C1` (single isomer, unassigned) [Example 1], the EC50 on PRMT5 is 9.8 nM; in test [1] (setting [3]), 1.1 nM.
As to `CC(=O)N1CCC(Nc2cc(C(=O)N3CCC(N4CCc5ccccc5C4)C(O)C3(C)C)ccn2)CC1` (single isomer, unassigned) [Example 22, l-(4-((4-(4-(3,4-dihydroisoquinolin-2(1H)-yl)-3-hydroxy-2,2-dimethylpiperidine-1-carbonyl)pyridin-2-yl)amino)piperidin-1-yl)ethan-1-one], the EC50 on PRMT5 was above 10000 nM; in test [1] (setting [4]), 159 nM; in test [1] (setting [5]), 58900 nM.
The like results for `CC(=O)N1CCC(Nc2cc(C(=O)N3CCC(N4CCc5ccccc5C4)C(O)C3(C)C)ccn2)CC1` (single isomer, unassigned) [Example 23, l-(4-((4-(4-(3,4-dihydroisoquinolin-2(1H)-yl)-3-hydroxy-2,2-dimethylpiperidine-1-carbonyl)pyridin-2-yl)amino)piperidin-1-yl)ethan-1-one] were, in that order, 4690 nM, around 36 nM and 31600 nM.
Take `COC(C)c1cc(Br)cn2cc(C(=O)N3CC[C@H](N4CCc5ccccc5C4)[C@@H](O)C3)nc12` (single isomer, unassigned) [Example 68, (6-bromo-8-((R or S)-1-methoxyethyl)imidazo[1,2-a]pyridin-2-yl)((3S,4S)-4-(3,4-dihydroisoquinolin-2(1H)-yl)-3-hydroxypiperidin-1-yl)methanone]: the EC50 on PRMT5 amounted to 2.2 nM; in test [1] (setting [3]) it was 0.4 nM.
Consider `O=C1Nc2cc(C(=O)N3CC[C@H](N4CCc5ccccc5C4)[C@@H](O)C3)ccc2OC1C1CC1` (single isomer, unassigned) [Example 80], for which the figures for the EC50 (on PRMT5; in test [1] (setting [3])) were 2.5 nM and 0.7 nM, respectively.
For the molecule `O=C1Nc2cc(C(=O)N3CC[C@H](N4CCc5ccccc5C4)[C@@H](O)C3)ccc2OC1C1CC1` (single isomer, unassigned) [Example 81], the figures for the EC50 (at PRMT5; in test [1] (setting [4]); in test [1] (setting [5])) were 59 nM, 1.6 nM and 5010 nM, respectively.
As for `CC1(C)CC(C2Oc3ccc(C(=O)N4CC[C@H](N5CCc6ccccc6C5)[C@@H](O)C4)cc3NC2=O)CO1` (single isomer, unassigned) [Example 84], the EC50 at PRMT5 came to 5.6 nM; in test [1] (setting [3]), 0.9 nM.
As to `CC1(C)CC(C2Oc3ccc(C(=O)N4CC[C@H](N5CCc6ccccc6C5)[C@@H](O)C4)cc3NC2=O)CO1` (single isomer, unassigned) [Example 85], the EC50 at PRMT5 worked out at 6.4 nM; in test [1] (setting [3]), 1.3 nM.
As to `CC(=O)N1CCC(Nc2cc(C(=O)N3CC[C@H](N4CCc5ccccc5C4)[C@@H](O)C3)c(F)cn2)C1` (single isomer, unassigned) [Example 113], the EC50 amounted to 50 nM on PRMT5, 3.1 nM in test [1] (setting [4]) and 9550 nM in test [1] (setting [5]).
The like results for `CC(=O)N1CCC(Nc2cc(C(=O)N3CC[C@H](N4CCc5ccccc5C4)[C@@H](O)C3)c(F)cn2)C1` (single isomer, unassigned) [Example 114] were, in that order, 28 nM, 3.3 nM and 3130 nM.
For `O=C(c1cc(NC2CCN3C(=O)CCC3C2)ncc1F)N1CC[C@H](N2CCc3ccccc3C2)[C@@H](O)C1` (single isomer, unassigned) [Example 115], the EC50 at PRMT5 came out at 140 nM; in test [1] (setting [3]), 6.5 nM.
Regarding `CCOC(=O)N1CCC(Nc2cc(C(=O)N3CC[C@H](N4CCc5ccccc5C4)[C@@H](O)C3)c(F)cn2)CC1` [Example 106, ethyl 4-((4-((3S,4S)-4-(3,4-dihydroisoquinolin-2(1H)-yl)-3-hydroxypiperidine-1-carbonyl)-5-fluoropyridin-2-yl)amino)piperidine-1-carboxylate], the EC50 came out at 6.2 nM at PRMT5; 1.9 nM in test [2] (first of two EC50s: 7 parameters biphasic model, read-out: Enzyme Methylation Assay Version B (EC50_1)); 496 nM in test [2] (second of two EC50s: 7 parameters biphasic model, read-out: Enzyme Methylation Assay Version B (EC50_2)).
